Data on two compounds can be found in US6992079B2, “Substituted 11-phenyl-dibenzazepine compounds useful for the treatment or prevention of diseases characterized by abnormal cell proliferation” (President Fellows of Harvard College, priority 1997, dated 2006).

What all share (type): cell-based
Assay [1] has as its system A549. Put plainly: SRB antiproliferative assay. The note with it: Homo sapiens. An excerpt:
(§1) The cells were passaged using Trypsin (Gibco).
In general terms: Sulforhodamine B stains cellular protein and so reports cell mass.

Assay [2] deals with ACHN. Put plainly: SRB antiproliferative assay. To be noted: Homo sapiens, ACHN (Renal), 5% FCS/5 day incubation.
Description: as §1

In assay [3] the test system is CaSki. As to the kind of experiment: SRB antiproliferative assay. The note with it: Homo sapiens, Ca-Ski, CaSki (Cervical), 5% FCS/5 day incubation.
Description: as §1

Assay [4] deals with DU-145. Put plainly: SRB antiproliferative assay. To be noted: Homo sapiens, DU-145 (Prostate), 5% FCS/5 day incubation.
Description: as §1

Assay [5] concerns GM. Put plainly: SRB antiproliferative assay. To be noted: GM (Normal human), 5% FCS/5 day incubation.
Description: as §1

Assay [6] concerns HCT-15. Put plainly: SRB antiproliferative assay. The note with it: Homo sapiens, HCT-15 (Colon), 5% FCS/5 day incubation.
Description: as §1

The subject of assay [7] is HEPG2. As to the kind of experiment: SRB antiproliferative assay. The note with it: Homo sapiens, HepG2, HEPG2 (Hepatocel), 5% FCS/5 day incubation.
Description: as §1

Assay [8] has as its system HT29. As to the kind of experiment: SRB antiproliferative assay. To be noted: Homo sapiens.
Description: as §1

In assay [9] the test system is HTB174. As to the kind of experiment: SRB antiproliferative assay. To be noted: Homo sapiens, HTB174 (Lung), 5% FCS/5 day incubation.
Description: as §1

For assay [10], the system named is HUVEC. Put plainly: SRB antiproliferative assay. To be noted: HUVEC (Normal human), 5% FCS/5 day incubation.
Description: as §1

In assay [11] the test system is HeLa. As to the kind of experiment: SRB antiproliferative assay. The note with it: Homo sapiens, HeLa (Cervical), 5% FCS/5 day incubation.
Description: as §1

Assay [12] deals with L929. As to the kind of experiment: SRB antiproliferative assay. To be noted: L929 (Normal mouse), 5% FCS/5 day incubation.
Description: as §1

In assay [13] the test system is MCF7. As to the kind of experiment: SRB antiproliferative assay. The note with it: Homo sapiens.
Description: as §1

Assay [14] relates to MDA-MB-23. As to the kind of experiment: SRB antiproliferative assay. The note with it: Homo sapiens, MDA-MB-23.
Description: as §1

Assay [15] concerns MMRU. As to the kind of experiment: SRB antiproliferative assay. The note with it: Homo sapiens.
Description: as §1

The test system of assay [16] is SK-MEL-28. Put plainly: SRB antiproliferative assay. To be noted: Homo sapiens, SK-MEL-28 (Melanoma), 5% FCS/5 day incubation.
Description: as §1

Assay [17] concerns U118MG. Put plainly: SRB antiproliferative assay. The note with it: Homo sapiens, U-118-MG, U118MG (CNS), 5% FCS/5 day incubation.
Description: as §1

The target of assay [18] is T1, Gardos channel of erythrocytes (Homo sapiens, UniProt O15554).
T1 construct: endogenous in cells; host or cells: erythrocytes
As to the kind of experiment: Gardos channel assay.

pIC50: −log10 of the molar value.

T1 sequence (O15554 whole entry): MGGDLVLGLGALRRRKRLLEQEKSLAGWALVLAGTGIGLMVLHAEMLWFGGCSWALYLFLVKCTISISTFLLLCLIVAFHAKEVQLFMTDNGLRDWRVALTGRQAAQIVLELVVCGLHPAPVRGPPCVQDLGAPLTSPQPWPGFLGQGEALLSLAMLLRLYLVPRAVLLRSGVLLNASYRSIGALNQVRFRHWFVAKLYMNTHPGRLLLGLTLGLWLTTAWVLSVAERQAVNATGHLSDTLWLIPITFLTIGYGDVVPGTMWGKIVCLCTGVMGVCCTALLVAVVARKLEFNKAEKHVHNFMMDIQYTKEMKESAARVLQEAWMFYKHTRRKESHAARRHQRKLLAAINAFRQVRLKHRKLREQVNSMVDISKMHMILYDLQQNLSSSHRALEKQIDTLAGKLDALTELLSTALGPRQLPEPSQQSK

Broadly, the pIC50 is the IC50 on a negative log10 scale, so that one unit is a factor of ten. Low readings indicate a large IC50, high ones a small IC50. For `COc1cc([C@@H]2c3cc4c(cc3[C@@H](O[C@@H]3O[C@@H]5CO[C@@H](C)O[C@H]5[C@H](O)[C@H]3O)[C@H]3COC(=O)[C@H]23)OCO4)cc(OC)c1O` [VP-16, Etoposide, reference compound], the pIC50 is greater than 5.90 in assay [1] (A549, A549 (Lung), 5% FCS/5 day incubation); 5.64 in assay [1] (A549, A549, 2% FCS/3 days); greater than 5.90 in assay [2]; 5.74 in assay [3]; greater than 5.90 in assay [4]; 5.85 in assay [5]. Moreover, the pIC50 is 5.89 in [6]; greater than 5.90 in assay [7]; greater than 5.90 in assay [8] (HT-29, HT29 (Colon), 5% FCS/5 day incubation); 4.70 in assay [8] (HT-29, HT29, 2% FCS/3 days); greater than 5.90 in assay [9]; greater than 5.90 in assay [10]. Besides, the pIC50 is greater than 5.90 in [11]; greater than 5.90 in assay [12]; greater than 5.90 in [13] (MCF7, MCF7 (Breast), 5% FCS/5 day incubation); greater than 5.60 in assay [13] (MCF7, MCF7, 2% FCS/3 days); greater than 5.90 in assay [14]; greater than 5.90 in assay [15] (MMRU (Melanoma), 5% FCS/5 day incubation). Besides, the pIC50 in [15] (MMRU, 2% FCS/3 days) was greater than 5.60; in assay [16], greater than 5.90; in [17], 5.66.

In the case of `CN1Cc2ccccc2C(c2ccccc2Cl)c2ccccc21` (stereo not shown) [Compound 29], the pIC50 in [18] is 6.36 to 6.38.
